In patent US12528761B2, “Thyromimetics” (Autobahn Therapeutics, Inc., priority 2020, dated 2026):
Like-named read-outs stand apart in the source and are kept apart here.

How the values were obtained:
[1] = biological target: T1, TRβ (Homo sapiens, UniProt P10828); test: TR reporter-gene assay (Gal4 DBD hybrid, luciferase), TRβ; type: cell-based; settings: for T3-SI (selectivity index, EC50 (TRα)/EC50 (TRβ)): class symbols
T1 construct: expressed in transfected cells; host or cells: HEK293
T1 sequence (P10828 217-461 limits assumed): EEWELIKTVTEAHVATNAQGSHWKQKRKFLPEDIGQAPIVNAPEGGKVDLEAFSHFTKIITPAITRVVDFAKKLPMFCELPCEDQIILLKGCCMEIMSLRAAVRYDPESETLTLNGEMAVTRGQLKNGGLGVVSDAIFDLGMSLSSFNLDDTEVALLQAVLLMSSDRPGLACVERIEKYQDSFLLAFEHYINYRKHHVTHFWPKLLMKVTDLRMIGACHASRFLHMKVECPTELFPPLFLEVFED
Description: (§1) Compounds were tested for thyroid-hormone receptor activity using TR reporter-gene assays. Reporter cells used in the assays express a TR-receptor hybrid (either TRα or TRβ) in which the native N-terminal DNA binding domain (DBD) has been replaced with that of the yeast Gal4 DBD. The reporter gene, firefly luciferase, is functionally linked to the Gal4 upstream activation sequence (UAS). Both cell lines were derived from human embryonic kidney (HEK293).
(§2) Step 1: A suspension of reporter cells was prepared in cell recovery medium containing 10% charcoal-stripped FBS, and dispensed into assay plates. The plates were pre-incubated for 6 hours in a cell culture incubator (37° C./5% CO2/85% humidity).
(§3) These intermediate stocks were subsequently diluted directly into compound screening medium containing 10% charcoal-stripped FBS to generate “2×-concentration” treatment media (containing 0.2, 0.4 or 0.8% DMSO).
(§4) Step 3: At the end of the pre-incubation period, culture media were discarded from the assay plates, and all wells received 100 μl of compound screening medium. 100 μl of each of the previously prepared “2×-concentration” treatment media were dispensed into duplicate assay wells, thereby achieving the desired final treatment concentrations. The final concentration of DMSO in all assay wells was 0.1, 0.2 or 0.4%. Assay plates were incubated for 24 hr in a cell culture incubator (37° C./5% CO2/85% humidity).
(§5) Step 4: At the 24 h assay endpoint, treatment media were discarded and 100 µl/well of luciferase detection reagent was added. Relative luminometer units (RLUs) were quantified from each assay well.

[2] = biological target: T2, TRα (Homo sapiens, UniProt P10827); test: TR reporter-gene assay (Gal4 DBD hybrid, luciferase), TRα; type: cell-based
T2 construct: expressed in transfected cells; host or cells: HEK293
T2 sequence (P10827 1-410 isoform P10827-2): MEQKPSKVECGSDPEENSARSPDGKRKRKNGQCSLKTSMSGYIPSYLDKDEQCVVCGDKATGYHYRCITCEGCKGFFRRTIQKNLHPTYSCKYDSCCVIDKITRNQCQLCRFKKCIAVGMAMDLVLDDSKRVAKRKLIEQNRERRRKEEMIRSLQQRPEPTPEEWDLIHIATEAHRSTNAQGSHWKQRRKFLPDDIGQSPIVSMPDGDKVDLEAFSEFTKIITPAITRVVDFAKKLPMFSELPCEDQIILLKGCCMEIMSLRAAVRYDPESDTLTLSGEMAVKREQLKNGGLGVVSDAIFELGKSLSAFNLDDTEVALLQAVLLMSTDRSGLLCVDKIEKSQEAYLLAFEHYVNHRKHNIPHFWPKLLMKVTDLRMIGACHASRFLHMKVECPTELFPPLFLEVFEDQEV
Description: as §1, §2, §3, §4, §5

[3] = HEK293-derived reporter cells, 24 hr treatment, read-out: TRβ EC50
[4] = HEK293-derived reporter cells, 24 hr treatment, read-out: TRα EC50

| EC50 [1, 3] [nM] | T3-SI (selectivity index, EC50 (TRα)/EC50 (TRβ)) [1] | EC50 [2, 4] [nM] | SMILES | EC50 [1] [nM] | EC50 [2] [nM] |
| --- | --- | --- | --- | --- | --- |
| 100 to 1000 | ++ (3× < T3-SI ≤ 30×) | 100 to 1000 | CON(C)C(=O)CCc1cc(Cl)c(Cc2ccc(O)c(C(C)C)c2F)c(Cl)c1 [Compound 107, 3-(3,5-dichloro-4-(2-fluoro-4-hydroxy-3-isopropylbenzyl)phenyl)-N-methoxy-N-methylpropanamide] | – | – |
| > 1000 | +++ (T3-SI > 30×) | > 1000 | CC(C)c1cc(Cc2c(Cl)cc([S+]([O-])CC(=O)O)cc2Cl)ccc1O (stereo not drawn) [Compound 92, 2-((3,5-dichloro-4-(4-hydroxy-3-isopropylbenzyl)phenyl)sulfinyl)acetic acid] | – | – |
| 100 to 1000 | ++ (3× < T3-SI ≤ 30×) | 100 to 1000 | CC(C)c1c(O)ccc(Cc2c(Cl)cc(C(C)C(=O)O)cc2Cl)c1F (stereo not drawn) [Compound 60, 2-(3,5-dichloro-4-(2-fluoro-4-hydroxy-3-isopropylbenzyl)phenyl)propanoic acid] | – | – |
| < 10 | ++ (3× < T3-SI ≤ 30×) | < 10 | CC(C)c1c(O)ccc(Cc2c(Cl)cc(NCC(=O)O)c(F)c2Cl)c1F [Compound 78, (3,5-dichloro-2-fluoro-4-(2-fluoro-4-hydroxy-3-isopropylbenzyl)phenyl)glycine] | – | – |
| 100 to 1000 | ++ (3× < T3-SI ≤ 30×) | 10 to 100 | CC(C)c1cc(Cc2c(Cl)cc(CSCC(=O)O)cc2Cl)ccc1O [Compound 95, 2-((3,5-dichloro-4-(4-hydroxy-3-isopropylbenzyl)benzyl)thio)acetic acid] | – | – |
| 100 to 1000 | ++ (3× < T3-SI ≤ 30×) | 100 to 1000 | Cc1c(F)c(SCC(=O)O)cc(Cl)c1Cc1ccc(O)c(C(C)C)c1 [Compound 227, 2-((5-chloro-2-fluoro-4-(4-hydroxy-3-isopropylbenzyl)-3-methylphenyl)thio)acetic acid] | – | – |
| > 1000 | + (T3-SI ≤ 3×) | > 1000 | CC(C)c1cc(Cc2c(Cl)cc(C[S+]([O-])CC(=O)O)cc2Cl)ccc1O (stereo not drawn) [Compound 96, 2-((3,5-dichloro-4-(4-hydroxy-3-isopropylbenzyl)benzyl)sulfinyl)acetic acid] | – | – |
| 10 to 100 | ++ (3× < T3-SI ≤ 30×) | 10 to 100 | CC(C)c1cc(Cc2c(Cl)cc(CCC(=O)O)cc2Cl)ccc1O [Compound 11, 3-(3,5-dichloro-4-(4-hydroxy-3-isopropylbenzyl)phenyl)propanoic acid] | – | – |
| > 1000 | + (T3-SI ≤ 3×) | 100 to 1000 | CC(C)c1cc(Cc2c(Cl)cc(CC3NC(=O)NC3=O)cc2Cl)ccc1O (stereo not drawn) [Compound 144, 5-(3,5-dichloro-4-(4-hydroxy-3-isopropylbenzyl)benzyl)imidazolidine-2,4-dione] | – | – |
| 10 to 100 | ++ (3× < T3-SI ≤ 30×) | 10 to 100 | CC(C)c1cc(Cc2c(Cl)cc(SCC(=O)O)c(F)c2Cl)ccc1O [Compound 204, 2-((3,5-dichloro-2-fluoro-4-(4-hydroxy-3-isopropylbenzyl)phenyl)thio)acetic acid] | – | – |
| > 1000 | + (T3-SI ≤ 3×) | 100 to 1000 | CC(C)c1cc(Cc2c(Cl)cc(/C=C\C(=O)O)cc2Cl)ccc1O [Compound 100, (Z)-3-(3,5-dichloro-4-(4-hydroxy-3-isopropylbenzyl)phenyl)acrylic acid] | – | – |
| 10 to 100 | + (T3-SI ≤ 3×) | 10 to 100 | CC(C)c1cc(Cc2c(Cl)cc(CC(N)C(=O)O)cc2Cl)ccc1O (stereo not drawn) [Compound 143, 2-amino-3-(3,5-dichloro-4-(4-hydroxy-3-isopropylbenzyl)phenyl)propanoic acid] | – | – |
| > 1000 | ++ (3× < T3-SI ≤ 30×) | > 1000 | Cc1cc([S+]([O-])CC(=O)O)cc(Cl)c1Cc1ccc(O)c(C(C)C)c1 (stereo not drawn) [Compound 244, 2-((3-chloro-4-(4-hydroxy-3-isopropylbenzyl)-5-methylphenyl)sulfinyl)acetic acid] | – | – |

The remaining lines, values behind:

| SMILES | EC50 [1, 3] [nM] | T3-SI (selectivity index, EC50 (TRα)/EC50 (TRβ)) [1] | EC50 [2, 4] [nM] | EC50 [1] [nM] | EC50 [2] [nM] |
| --- | --- | --- | --- | --- | --- |
| Cc1cc(CCC(=O)O)cc(Cl)c1Cc1ccc(O)c(C(C)C)c1F [Compound 249, 3-(3-chloro-4-(2-fluoro-4-hydroxy-3-isopropylbenzyl)-5-methylphenyl)propanoic acid] | 10 to 100 | ++ (3× < T3-SI ≤ 30×) | 10 to 100 | – | – |
| C/C(=C\c1cc(C)c(Cc2ccc(O)c(C(C)C)c2F)c(Cl)c1)C(=O)O [Compound 248, (E)-3-(3-chloro-4-(2-fluoro-4-hydroxy-3-isopropylbenzyl)-5-methylphenyl)-2-methylacrylic acid] | 10 to 100 | + (T3-SI ≤ 3×) | 10 to 100 | – | – |
| CC(C)c1cc(Cc2c(Cl)cc(NC(=O)CC(=O)O)cc2Cl)ccc1O [Compound 22, 3-((3,5-dichloro-4-(4-hydroxy-3-isopropylbenzyl)phenyl)amino)-3-oxopropanoic acid] | 100 to 1000 | ++ (3× < T3-SI ≤ 30×) | 100 to 1000 | – | – |
| CC(C)c1c(O)ccc(Cc2c(Cl)cc(SCC(=O)O)cc2Cl)c1F [Compound 203, 2-((3,5-dichloro-4-(2-fluoro-4-hydroxy-3-isopropylbenzyl)phenyl)thio)acetic acid] | 10 to 100 | ++ (3× < T3-SI ≤ 30×) | 10 to 100 | – | – |
| CONC(=O)Cc1cc(Cl)c(Cc2ccc(O)c(C(C)C)c2F)c(Cl)c1 [Compound 104, 2-(3,5-dichloro-4-(2-fluoro-4-hydroxy-3-isopropylbenzyl)phenyl)-N-methoxyacetamide] | 100 to 1000 | +++ (T3-SI > 30×) | > 1000 | – | – |
| C[Si](C)(C)c1c(O)ccc(Cc2c(Cl)cc(CC(=O)O)c(F)c2Cl)c1F [Compound 151, 2-(3,5-dichloro-2-fluoro-4-(2-fluoro-4-hydroxy-3-(trimethylsilyl)benzyl)phenyl)acetic acid] | – | ++ (3× < T3-SI ≤ 30×) | – | 100 to 1000 | 100 to 1000 |
| CC(C)c1cc(Cc2c(Cl)cc(SCC(=O)O)cc2Cl)ccc1O [Compound 91, 2-((3,5-dichloro-4-(4-hydroxy-3-isopropylbenzyl)phenyl)thio)acetic acid] | 100 to 1000 | ++ (3× < T3-SI ≤ 30×) | 100 to 1000 | – | – |
| CC(C)c1cc(Cc2c(Cl)cc(/C=C/C(=O)O)cc2Cl)ccc1O [Compound 86, (E)-3-(3,5-dichloro-4-(4-hydroxy-3-isopropylbenzyl)phenyl)acrylic acid] | 10 to 100 | + (T3-SI ≤ 3×) | 10 to 100 | – | – |
| CC(C)c1cc(Cc2c(Cl)cc(OCCCC(=O)O)cc2Cl)ccc1O [Compound 24, 4-(3,5-dichloro-4-(4-hydroxy-3-isopropylbenzyl)phenoxy)butanoic acid] | 100 to 1000 | + (T3-SI ≤ 3×) | 100 to 1000 | – | – |
| Cc1cc(CSCC(=O)O)cc(Cl)c1Cc1ccc(O)c(C(C)C)c1 [Compound 124, 2-((3-chloro-4-(4-hydroxy-3-isopropylbenzyl)-5-methylbenzyl)thio)acetic acid] | 10 to 100 | ++ (3× < T3-SI ≤ 30×) | 10 to 100 | – | – |
